Reference: ChEMBL document CHEMBL4138146, “A Schmidt rearrangement-mediated synthesis of novel tetrahydro-benzo[1,4]diazepin-5-ones as potential anticancer and antiprotozoal agents” (Eur J Med Chem, 2017)
Values after ≈ are worked out from the molar mass of the structure shown.

Legend:
[1] = tested on: Trypanosoma cruzi; assay: Antitrypanosomal activity against Trypanosoma cruzi Tulahuen amastigote forms infected in human U937 cells after 72 hrs by beta-galactosidase reporter gene assay; format: functional, organism-based; conditions: U-937, 72 h
[2] = tested on: U-937; assay: Cytotoxicity against human U937 cells after 72 hrs by MTT assay; format: functional; conditions: U-937, 72 h, read-out: LC50 (the source's name)
[3] = tested on: Leishmania panamensis; assay: Antileishmanial activity against EpiR/GFP fused Leishmania panamensis MHOM/CO/87/UA140 intracellular amastigotes infected in human […] cells after 72 hrs by flow cytometric method; format: functional, organism-based; conditions: MHOM/CO/87/UA140, 72 h
[4] = tested on: Plasmodium falciparum; assay: Antimalarial activity against chloroquine-sensitive Plasmodium falciparum 3D7 incubated for 48 hrs by malstat reagent based LDH release assay; format: functional, organism-based; conditions: 3D7, 48 h

How did the EC50 [1] turn out when O=C1NCC(c2cc3cc(Cl)ccc3[nH]c2=O)Nc2ccccc21 (configuration not stated) was run?
Its EC50 is 123 µg/mL (≈ 361 µM).

And the CC50 [2]?
The CC50 was 192 µg/mL (≈ 566 µM).

What about the EC50 [3] of the same compound?
Its EC50 is 19.4 µg/mL (≈ 57.2 µM).

What about the EC50 [4] of the same compound?
The EC50 was 43.2 µg/mL (≈ 127 µM).

What does the source list for O=C1NCC(c2cc3cc(Br)ccc3[nH]c2=O)Nc2ccccc21 (configuration not stated)?
CC50 [2]: 57 µg/mL (≈ 148 µM); EC50 [3]: 15.3 µg/mL (≈ 39.7 µM); EC50 [4]: 13.6 µg/mL (≈ 35.4 µM)

Which results are given for CCCCOc1nc2ccc(Br)cc2cc1C1CNC(=O)c2ccccc2N1 (configuration not stated)?
CC50 [2]: > 200 µg/mL; EC50 [3]: 34.2 µg/mL (≈ 77.6 µM); EC50 [4]: 50.8 µg/mL (≈ 115 µM)

How did the CC50 [2] turn out when C[C@@H]1[C@H](O)[C@@H](C)/C=C/C=C/C=C/C=C/C=C/C=C/C=C/[C@H](O[C@@H]2O[C@H](C)[C@@H](O)[C@H](N)[C@@H]2O)C[C@@H]2O[C@](O)(C[C@@H](O)C[C@@H](O)[C@H](O)CC[C@@H](O)C[C@@H](O)CC(=O)O[C@H]1C)C[C@H](O)[C@H]2C(=O)O [AMPHOTERICIN B] was run?
Its CC50 is 36 µg/mL (≈ 39 µM).

How did the CC50 [2] turn out when O=C(Cn1ccnc1[N+](=O)[O-])NCc1ccccc1 [BENZNIDAZOLE] was run?
The CC50 was 180 µg/mL (≈ 692 µM).
